According to patent US20060069132A1, “Azolecarboxamide herbicides” (priority 2004, published 2006):

Key:
[1] = system: redroot pigweed; assay: Test A pre-/postemergence herbicide test; format: in vivo, Amaranthus retroflexus
Outline: (§1)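 Plants are held in greenhouse about ten days after treatment, then compared with untreated controls and scored 0 (no effect) to 100 (complete control). Preemergence dosing is a directed soil spray on sown sandy loam; postemergence dosing is spray to runoff at 2–10 cm height.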

[2] = system: corn; assay: Test B pre-/postemergence herbicide test; format: in vivo, Zea mays; settings: for Corn plant response rating: postemergence
Outline: (§2)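 Response was scored visually 13 to 15 days after treatment against untreated greenhouse controls, 0 meaning no effect and 100 complete control. Formulations (solvent mixture plus surfactant) went onto soil after planting, onto foliage of 1- to 4-leaf plants, and onto 2-leaf plants in a flooded paddy set including rice and barnyardgrass.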

[3] = system: pigweed; assay: Test B pre-/postemergence herbicide test; format: in vivo, Amaranthus retroflexus; settings: for Pigweed plant response rating: postemergence
Outline: as §2

[4] = system: large crabgrass; assay: Test B pre-/postemergence herbicide test; format: in vivo, Digitaria sanguinalis; settings: for Crabgrass, Large plant response rating: postemergence
Outline: as §2

[5] = system: wild oat; assay: Test B postemergence herbicide test; format: in vivo, Avena fatua; settings: postemergence
Outline: (§3)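 Treated at 2-leaf (paddy) or 1–4-leaf, 2–18 cm (postemergence); greenhouse 13–15 d; visual score vs control, 0 none to 100 complete control; dash = not tested.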

[6] = system: barnyardgrass; assay: Test A pre-/postemergence herbicide test; format: in vivo, Echinochloa crus-galli
Outline: as §1

[7] = system: cocklebur; assay: Test B pre-/postemergence herbicide test; format: in vivo, Xanthium strumarium
Outline: (§4)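 Species tested were Echinochloa crus-galli, Ipomoea coccinea, Xanthium strumarium and Oryza sativa, treated both before emergence and at the 1- to 4-leaf stage; rice and barnyardgrass were also tested under flooding at 2 leaves. Greenhouse incubation lasted 13–15 days before visual 0–100 scoring.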

[8] = system: large crabgrass; assay: Test A pre-/postemergence herbicide test; format: in vivo, Digitaria sanguinalis
Outline: as §1

[9] = system: morningglory; assay: Test A pre-/postemergence herbicide test; format: in vivo, Ipomoea spp.
Outline: as §1

[10] = system: giant foxtail; assay: Test A pre-/postemergence herbicide test; format: in vivo, Setaria faberi
Outline: as §1

[11] = system: barnyardgrass; assay: Test B flooded paddy test; format: in vivo, Echinochloa crus-galli; settings: 1000 g ai/ha, scale 0 to 100 (0 no effect, 100 complete control)
Outline: (§5)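 Plants grow to 1- to 4-leaf stage (2–18 cm) for postemergence spraying, or to 2-leaf stage for the paddy test. Formulated compound is applied. Greenhouse holding lasts 13–15 days. Response is scored visually relative to controls, 0 no effect to 100 complete control; a dash means no result.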

[12] = system: rice; assay: Test B flooded paddy test; format: in vivo, Oryza sativa; settings: 1000 g ai/ha, scale 0 to 100 (0 no effect, 100 complete control)
Outline: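 Postemergence plants were sprayed with formulated test chemicals at 2 to 18 cm height (1- to 4-leaf stage); paddy species were grown to the 2-leaf stage. After 13 to 15 days in a greenhouse, injury was rated visually against untreated controls on a 0–100 scale (0 = no effect, 100 = complete control).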

[13] = system: small flower umbrella sedge; assay: Test B flooded paddy test; format: in vivo, Cyperus difformis; settings: 1000 g ai/ha, scale 0 to 100 (0 no effect, 100 complete control)
Outline: as §5

[14] = system: ducksalad; assay: Test B flooded paddy test; format: in vivo, Heteranthera limosa; settings: 1000 g ai/ha, scale 0 to 100 (0 no effect, 100 complete control)
Outline: as §5

[15] = system: morningglory; assay: Test B pre-/postemergence herbicide test; format: in vivo, Ipomoea coccinea; settings: for Morningglory plant response rating: postemergence
Outline: as §4

[16] = system: blackgrass; assay: Test B postemergence herbicide test; format: in vivo, Alopecurus myosuroides; settings: postemergence
Outline: as §5

[17] = system: giant foxtail; assay: Test B pre-/postemergence herbicide test; format: in vivo, Setaria faberi; settings: for Foxtail, Giant plant response rating: postemergence
Outline: as §2

[18] = system: wheat; assay: Test B postemergence herbicide test; format: in vivo, Triticum aestivum; design: key to Wheat plant response rating: 0 = no effect, 100 = complete control; settings: postemergence
Outline: as §3

[19] = system: velvetleaf; assay: Test B pre-/postemergence herbicide test; format: in vivo, Abutilon theophrasti; settings: 100 is complete control
Outline: as §2

[20] = system: lambsquarters; assay: Test B pre-/postemergence herbicide test; format: in vivo, Chenopodium album; settings: for Lambsquarters plant response rating: postemergence
Outline: as §2

[21] = system: velvetleaf; assay: Test A pre-/postemergence herbicide test; format: in vivo, Abutilon theophrasti
Outline: as §1

[22] = system: barnyardgrass; assay: Test B pre-/postemergence herbicide test; format: in vivo, Echinochloa crus-galli; settings: for Barnyardgrass plant response rating: postemergence
Outline: as §4

[23] = system: Surinam grass; assay: Test B pre-/postemergence herbicide test; format: in vivo, Urochloa decumbens; settings: for Surinam Grass plant response rating: postemergence
Outline: as §2

[24] = Postemergence, 500 g ai/ha, 0 to 100 scale, 0 no effect, 100 complete control
[25] = Postemergence, 2000 g ai/ha, 0 to 100 scale, 0 no effect, 100 complete control
[26] = Preemergence, 2000 g ai/ha, visual rating, 0 to 100 scale (0 no effect, 100 complete control)
[27] = preemergence, 500 g ai/ha, visual injury, 0 to 100 scale (0 no effect, 100 complete control)
[28] = 125 g ai/ha, 0 is no effect, 100 is complete control, preemergence
[29] = 125 g ai/ha, visual rating, scale 0 (no effect) to 100 (complete control)
[30] = 500 g ai/ha, visual rating, 0 = no effect, 100 = complete control, preemergence
[31] = 500 g ai/ha, scale 0 to 100, 0 is no effect, 100 is complete control

CCNC(=O)c1cccc(NC(=O)c2nn(C3CCCC3)nc2CC)c1 [Compound 356]
Pigweed plant response rating [1, 24]: 65 | Plant response rating, Pigweed [1, 25]: 70 | Pigweed plant response rating [1, 26]: 80 | Pigweed plant response rating [1, 27]: 25 | Plant response rating (0 to 100 scale), Corn [2, 28]: 10 | Corn plant response rating [2, 29]: 0 | Plant response rating, Corn [2, 30]: 50 | Corn plant response rating [2, 31]: 0 | Plant response rating (0 to 100 scale), Pigweed [3, 28]: 70 | Pigweed plant response rating [3, 29]: 30 | Plant response rating, Pigweed [3, 30]: 100 | Pigweed plant response rating [3, 31]: 70 | Plant response rating (0 to 100 scale), Crabgrass, Large [4, 28]: 40 | Crabgrass, Large plant response rating [4, 29]: 10 | Plant response rating, Crabgrass, Large [4, 30]: 90 | Crabgrass, Large plant response rating [4, 31]: 30 | Oat, Wild plant response rating [5, 29]: 0 | Oat, Wild plant response rating [5, 31]: 20 | Barnyardgrass plant response rating [6, 24]: 25 | Plant response rating, Barnyardgrass [6, 25]: 40 | Barnyardgrass plant response rating [6, 26]: 45 | Barnyardgrass plant response rating [6, 27]: 5 | Plant response rating (0 to 100 scale), Cocklebur [7, 28]: 0 | Plant response rating, Cocklebur [7, 30]: 20 | Cocklebur plant response rating ([7]; postemergence, 500 g ai/ha, scale 0 to 100, 0 is no effect, 100 is complete control): 0 | Crabgrass, Large plant response rating [8, 24]: 10 | Plant response rating, Crabgrass, Large [8, 25]: 15 | Crabgrass, Large plant response rating [8, 26]: 20 | Crabgrass, Large plant response rating [8, 27]: 10 | Morningglory plant response rating [9, 24]: 10 | Plant response rating, Morningglory [9, 25]: 20 | Morningglory plant response rating [9, 26]: 15 | Morningglory plant response rating [9, 27]: 5 | Foxtail, Giant plant response rating [10, 24]: 10 | Plant response rating, Foxtail, Giant [10, 25]: 10 | Foxtail, Giant plant response rating [10, 26]: 45 | Foxtail, Giant plant response rating [10, 27]: 20 | Barnyardgrass plant response rating [11]: 50 | Rice plant response rating [12]: 50 | Sedge, Umbrella plant response rating [13]: 70 | Ducksalad plant response rating [14]: 60 | Plant response rating (0 to 100 scale), Morningglory [15, 28]: 0 | Morningglory plant response rating [15, 29]: 0 | Plant response rating, Morningglory [15, 30]: 10 | Morningglory plant response rating [15, 31]: 10 | Blackgrass plant response rating [16, 29]: 0 | Blackgrass plant response rating [16, 31]: 10 | Plant response rating (0 to 100 scale), Foxtail, Giant [17, 28]: 10 | Foxtail, Giant plant response rating [17, 29]: 30 | Plant response rating, Foxtail, Giant [17, 30]: 80 | Foxtail, Giant plant response rating [17, 31]: 30 | Wheat plant response rating [18, 29]: 0 | Wheat plant response rating [18, 31]: 10 | Plant response rating (0 to 100 scale), Velvetleaf ([19]; 125 g ai/ha, 0 is no effect, preemergence): 0 | Velvetleaf plant response rating ([19]; postemergence, 500 g ai/ha, scale 0 to 100, 0 is no effect): 0 | Plant response rating (0 to 100 scale), Lambsquarters [20, 28]: 40 | Lambsquarters plant response rating [20, 29]: 10 | Plant response rating, Lambsquarters [20, 30]: 100 | Lambsquarters plant response rating [20, 31]: 50 | Velvetleaf plant response rating [21, 24]: 10 | Plant response rating, Velvetleaf [21, 25]: 10 | Velvetleaf plant response rating [21, 26]: 20 | Velvetleaf plant response rating [21, 27]: 0 | Plant response rating (0 to 100 scale), Barnyardgrass [22, 28]: 60 | Barnyardgrass plant response rating [22, 29]: 0 | Plant response rating, Barnyardgrass [22, 30]: 80 | Barnyardgrass plant response rating [22, 31]: 0 | Plant response rating (0 to 100 scale), Surinam Grass [23, 28]: 10 | Surinam Grass plant response rating [23, 29]: 10 | Plant response rating, Surinam Grass [23, 30]: 60 | Surinam Grass plant response rating [23, 31]: 20
